{"source": "paper PMC4122355", "about": "“Inhibitor of the Tyrosine Phosphatase STEP Reverses Cognitive Deficits in a Mouse Model of Alzheimer's Disease” (PLoS Biology, 2014)", "key": {"3xTg-AD and WT mice": {"test_system": "3xTg-AD and WT mice", "test": "Novel object recognition (NOR) task", "format": "in vivo, mouse", "conditions": "10 mg/kg i.p.", "experimental": "Mice were first habituated to the task by allowing them to explore an empty white open field box (60 cm×60 cm) for 5 min. […] After the elapsed time, the mice completed the sample phase in which they were placed into the open field box with two identical objects located in the right and left corners. Mice were allowed to freely explore until they had accumulated a total of 30 s of object exploration (i.e., contact with the object with the nose and/or front paws), at which point the trial ended. The time spent with each object was recorded. Mice that were unable to complete the 30 s exploration within 20 min during the sample phase were excluded from the study (WT = 1 and AD = 3). Twenty-four hours later, mice completed the choice phase that was conducted in an identical manner to the sample phase except that one of the objects was substituted by a novel object and trial duration was set at 5 min. No drug treatments were given during the choice phase. Fifteen WT mice from the initial cohort were used to optimize the novel object conditions (to identify object pairings of inherent equal interest). Location of the novel object (left or right side) was counterbalanced to minimize possible bias. […] The DI was calculated for each subject by using the following formula: DI = (time spent exploring novel object – time spent exploring familiar object)/(total time spent exploring both objects). […]"}, "mice": {"test_system": "mice", "parameters": "method as in earlier work", "conditions": "cited from earlier work"}, "STEP": {"target": "T1, STEP (Mus musculus, UniProt P54830)", "T1 sequence (P54830 1-541)": "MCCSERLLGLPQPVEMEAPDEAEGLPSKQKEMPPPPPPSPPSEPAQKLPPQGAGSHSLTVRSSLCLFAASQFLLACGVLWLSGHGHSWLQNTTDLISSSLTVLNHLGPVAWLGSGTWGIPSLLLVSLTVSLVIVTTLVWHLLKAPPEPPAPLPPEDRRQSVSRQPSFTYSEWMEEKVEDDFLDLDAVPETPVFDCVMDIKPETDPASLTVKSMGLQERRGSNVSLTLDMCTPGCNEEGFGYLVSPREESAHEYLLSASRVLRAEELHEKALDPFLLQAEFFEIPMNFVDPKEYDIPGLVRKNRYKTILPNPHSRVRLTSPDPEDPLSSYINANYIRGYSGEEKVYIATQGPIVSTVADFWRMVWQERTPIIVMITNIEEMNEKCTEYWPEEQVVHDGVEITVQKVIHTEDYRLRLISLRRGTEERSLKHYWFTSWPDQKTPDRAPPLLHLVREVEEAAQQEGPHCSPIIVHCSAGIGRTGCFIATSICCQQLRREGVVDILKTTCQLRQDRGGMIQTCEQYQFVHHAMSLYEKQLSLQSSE", "test": "Dialysis of TC-2153-inhibited STEP", "format": "biochemical", "conditions": "after 24 h of dialysis", "experimental": "The samples were shaken at room temperature for 1 h to inhibit STEP. Each sample was then transferred to a separate Thermo Scientific Slide-A-Lyzer dialysis cassette with a 10,000 MW cutoff and 0.5–3.0 mL sample volume and was dialyzed into 1 L of 1× assay buffer over 24 h in a 4°C cold room. Aliquots of approximately 100 µL were removed from the dialysis cassette at 0, 4, and 24 h time points. Protein concentration was determined by reading absorbance at 280 nm compared to a standard curve for STEP. The samples were diluted to 100 nM in 100 µL of 1× assay buffer. […] The initial rate data collected were used to determine enzyme activity standardized to the DMSO control zero time point."}, "HePTP": {"target": "T2, HePTP (Homo sapiens, UniProt P35236)", "T2 construct": "Full-length HePTP and PTP-SL proteins were purchased from Abnova; purchased Abnova (Taipei, Taiwan)", "T2 sequence (P35236 1-360)": "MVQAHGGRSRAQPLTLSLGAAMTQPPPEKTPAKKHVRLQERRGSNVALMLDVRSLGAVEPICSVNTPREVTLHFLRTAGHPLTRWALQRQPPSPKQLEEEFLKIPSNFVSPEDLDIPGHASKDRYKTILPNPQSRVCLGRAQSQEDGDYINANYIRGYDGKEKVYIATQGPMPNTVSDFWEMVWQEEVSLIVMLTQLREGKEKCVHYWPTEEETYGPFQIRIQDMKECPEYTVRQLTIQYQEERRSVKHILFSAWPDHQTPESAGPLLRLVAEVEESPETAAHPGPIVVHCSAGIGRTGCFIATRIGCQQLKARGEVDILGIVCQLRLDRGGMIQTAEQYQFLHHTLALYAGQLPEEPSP", "test": "Selectivity pNPP assay, full-length PTPs: HePTP", "format": "biochemical", "conditions": "full-length PTP, 10 nM, 500 µM pNPP", "description": "Constructs were transformed into BL21 (DE3) E. coli cells. Fusion proteins were purified on a glutathione sepharose column."}}}
{"smiles": "Cl.Nc1cc(C(F)(F)F)cc2c1SSSSS2", "note": "[TC-2153, 8-(trifluoromethyl)-1,2,3,4,5-benzopentathiepin-6-amine hydrochloride]", "values": [{"measurement": "NOR memory in 12-mo-old AD mice", "setting": "3xTg-AD and WT mice; 12-mo-old 3xTg-AD mice, familiar versus novel p<0.05", "value": "significant improvement of memory"}, {"measurement": "NOR cognitive function in 12-mo-old WT mice", "setting": "3xTg-AD and WT mice; WT mice, 12 mo cohort", "value": "did not affect cognitive function"}, {"measurement": "Behavioural effects taken as evidence of crossing the blood brain barrier", "setting": "mice", "value": "anxiolytic and anticonvulsant effects"}, {"measurement": "STEP activity after dialysis (reversibility)", "setting": "STEP", "value": "STEP remained inhibited"}, {"measurement": "IC50", "setting": "HePTP", "value": "363.5 ± 1.2", "unit": "nM"}]}
